According to patent US9382204B2, “Inhibitors targeting the DNA-binding domain of human STAT3 for treatment of metastatic cancers” (Indiana University Research and Technology Corporation, priority 2013, dated 2016):

Experiments:
[1] = mouse, in vivo
[2] = tested on: STAT3; assay: ChIP assay of STAT3 bound to cyclin D1 promoter; assay type: cell-based, human
Protocol: ChIP was performed as previously described. Briefly, H1299 cells were treated with 1% formaldehyde for 10 min and lysates of the cells were sonicated to shear DNA to lengths between 200 and 1000 bases, which were then subjected to ChIP using Chromatin Immunoprecipitation Assay Kit (EMD Millipore, Billerica, Mass.) and normal IgG or STAT3 specific antibody (Santa Cruz) according to manufacturer's instructions. The primers for PCR of cyclin D1 promoter are 5′-[…]-3′ SEQ ID NO: 23 (forward) and 5′-[…]-3′ SED ID NO: 24 (reverse).

[3] = tested on: STAT3; assay: STAT3 dimerization (STAT3c non-reducing PAGE, HA/FLAG co-immunoprecipitation) in H1299 cells; assay type: cell-based, human; conditions: 20 μM
Description: To eliminate the possibility that inS3-54 works by off-targeting to the SH2 domain, we tested if inS3-54 inhibits STAT3 dimerization using FLAG-STAT3c, which forms spontaneous homo-dimers via formation of intermolecular disulfide bond.
However, inS3-54 had no effect on production of dimeric STAT3c separated using non-reducing SDS-PAGE or non-denaturing PAGE (FIG. 6B) while S3I-201, a STAT3 inhibitor that binds to the SH2 domain, inhibited STAT3c dimerization (FIG. 6B). To confirm this observation, we performed a co-immunoprecipitation analysis of HA and FLAG-tagged STAT3.

[4] = tested on: STAT3; assay: STAT3-dependent luciferase reporter assay in transiently transfected H1299 cells; assay type: cell-based, human; conditions: newly synthesized compound
Description: FIG. 1. Schematic diagram and identification of inS3-54 by virtual screening. (A) DNA-STAT3 complex structure (PDB code: 1BG1). […] (B) Luciferase activity assay of MDA-MB-231 cells stably transfected with STAT3-dependent luciferase reporter. (C) Structure of inS3-54. (D) Luciferase activity assay of H1299 cells transiently transfected with STAT3-dependent luciferase reporter. (E) Simulated average complex structure of inS3-54 in the DBD of STAT3. (F & G) Molecular surface of STAT3 (F) and STAT1 (G) complexed with inS3-54 from MD simulation with orientation shown in gold for STAT3 and pink for STAT1. Molecular surface is colored with gray for carbon, blue for nitrogen, red for oxygen and yellow for sulfur. (**p<0.01).
To confirm the activity of the compound using re-supplied material, to eliminate the potential issues associated with the use of a single stable clone harboring the luciferase reporter gene, and to test if inS3-54 is cell line specific, we tested newly synthesized inS3-54 using H1299 cells transiently transfected with the STAT3-driven luciferase reporter plasmid. […] Thus, the activity of inS3-54 is not derived from potential contamination in the original supply and it is not dependent on cell line specific or transfection method used.

SMILES	dose tolerated by mice [1]	STAT3 binding to the promoter of cyclin D1 gene (ChIP) [2]	production of dimeric STAT3c ([3]; 24 hrs, non-reducing SDS-PAGE or non-denaturing PAGE)	co-immunoprecipitation between HA- and FLAG-tagged STAT3 ([3]; H1299 cells)	STAT3-dependent luciferase reporter expression [4]
O=C1C(=Cc2ccc(Cl)cc2)C=C(c2ccccc2)N1c1ccc(O)cc1 [Compound A18]	up to 200 mg/kg	eliminated			
O=C(O)c1ccc(N2C(=O)/C(=C/c3ccc([N+](=O)[O-])cc3)C=C2c2ccccc2)cc1 [inS3-54, 4-[(3E)-3-[(4-nitrophenyl)-methylidene]-2-oxo-5-phenylpyrrol-1-yl]benzoic acid]			had no effect	had no effect	significantly inhibits
